From patent US12234207B2, “Halo-(3-(phenylsulfonyl)prop-1-enyl)pyridine derivative and use thereof” (Cureverse Incorporated, priority 2018, dated 2025)

Legend:
[1] = tested on: Nrf2; assay: Nrf2 functional cell-based assay (DisoveRx), luminescence; conditions: for EC50: U2OS cells, 6 hours incubation, concentration that activates by 50% relative to the maximum effect
Protocol: In order to confirm the pharmacological activity of the compounds synthesized according to Examples 1 to 18 of the present invention, the effects of the synthesized derivatives on inducing the activity of Nrf2, a major regulator of the defense against oxidative stress, were evaluated by constructing an Nrf2 functional cell-based assay (DisoveRx). Specifically, U2OS cells were used, and after the cell pellet was released with CP 0 reagent, the cells were loaded in an amount of 80 μL into a 96-well plate at a density of 1.5×10^4 cells/well and incubated for 24 hours. The compounds synthesized according to Examples 1 to 18 were diluted 3 times in DMSO at 7 different concentrations to prepare a stock solution. 10 μL. of each compound solution was mixed with 90 μL of CP 0 and added in an amount of 20 μL to each well of the 96-well plate, and each experiment was repeated three times. […] Substrate reagents 1 and 2 were added to the cell assay buffer and mixed, and then 50 μL of the substrate reagent was added to a 96-well plate per well, wrapped in foil, and incubated for 1 hour. Thereafter, the luminescence value was measured at all wavelengths and at integration time of 100 ms using a luminescence spectrophotometer (Molecular Devices). […] The results are shown in Table 5 below, and the efficacy of the compounds was compared as a percentage with respect to the sulforaphane-treated group. As another control group, a chalcone derivative, VSC2 ((F)-1-(2-((2-methoxyphenyl)sulfonyl)vinyl)-2-chlorobenzene, Woo et al., J. Med. Chem., 2014, 57:1473-1487), which has a parent structure similar to that of the present invention, and which has been confirmed to induce activation of Nrf2 through the structural changes of Keap1, was used.

[2] = molecular target: T1, CYP 2C9 (Homo sapiens, UniProt P11712); assay: Inhibition of CYP activity in human liver microsomes, 2C9; type: in vitro ADME; conditions: 10 μM compound, human liver microsomes 0.25 mg/mL; % activity relative to the negative control
T1 construct: from tissue; host or cells: human liver microsomes
Protocol: (§1) Thereafter, the reaction was terminated by adding an acetonitrile solution containing an internal standard substrate (terfenadine), followed by centrifugation (14,000 rpm, 4° C.) for 5 minutes. Subsequently, the supernatant was injected into the LC-MS/MS system, and the metabolites of the substrate drugs were simultaneously analyzed to evaluate the inhibitory ability of these compounds on drug metabolic enzymes. The metabolites of each CYP isoenzyme indicator drug generated through the above reaction were analyzed using the Shimadzu Nexera XR system and TSQ vantage (Thermo). A Kinetex C18 column was used as the HPLC column, and distilled water containing 0.1% formic acid and acetonitrile containing 0.1% formic acid were used as the mobile phase. The generated metabolites were quantified using the quantification mode of multiple reaction monitoring (MRM), and data were analyzed with Xcalibur (version 1.6.1).

[3] = molecular target: T2, CYP 1A2 (Homo sapiens, UniProt P05177); assay: Inhibition of CYP activity in human liver microsomes, 1A2; type: in vitro ADME; conditions: 10 μM compound, human liver microsomes 0.25 mg/mL; % activity relative to the negative control
T2 construct: from tissue; host or cells: human liver microsomes
T2 sequence (P05177 1-516): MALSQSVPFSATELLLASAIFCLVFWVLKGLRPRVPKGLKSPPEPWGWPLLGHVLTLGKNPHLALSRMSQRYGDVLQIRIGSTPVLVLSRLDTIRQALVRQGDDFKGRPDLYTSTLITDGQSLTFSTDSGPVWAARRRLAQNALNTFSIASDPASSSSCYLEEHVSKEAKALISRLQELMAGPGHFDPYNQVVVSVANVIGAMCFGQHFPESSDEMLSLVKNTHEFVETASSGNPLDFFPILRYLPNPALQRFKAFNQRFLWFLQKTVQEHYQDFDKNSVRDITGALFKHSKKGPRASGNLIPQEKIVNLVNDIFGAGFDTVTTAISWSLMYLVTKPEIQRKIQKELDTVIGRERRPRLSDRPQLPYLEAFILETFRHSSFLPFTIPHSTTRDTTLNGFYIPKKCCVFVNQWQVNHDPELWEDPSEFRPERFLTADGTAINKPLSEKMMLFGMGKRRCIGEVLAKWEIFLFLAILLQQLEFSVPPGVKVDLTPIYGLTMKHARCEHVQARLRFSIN
Protocol: as §1

[4] = molecular target: T3, CYP 2C19 (Homo sapiens, UniProt P33261); assay: Inhibition of CYP activity in human liver microsomes, 2C19; type: in vitro ADME; conditions: 10 μM compound, human liver microsomes 0.25 mg/mL; % activity relative to the negative control
T3 construct: from tissue; host or cells: human liver microsomes
Protocol: as §1

[5] = molecular target: T4, CYP 2D6 (Homo sapiens, UniProt P10635); assay: Inhibition of CYP activity in human liver microsomes, 2D6; type: in vitro ADME; conditions: 10 μM compound, human liver microsomes 0.25 mg/mL; % activity relative to the negative control
T4 construct: from tissue; host or cells: human liver microsomes
Protocol: as §1

[6] = molecular target: T5, CYP 3A4 (Homo sapiens, UniProt P08684); assay: Inhibition of CYP activity in human liver microsomes, 3A4; type: in vitro ADME; conditions: 10 μM compound, human liver microsomes 0.25 mg/mL; % activity relative to the negative control
T5 construct: from tissue; host or cells: human liver microsomes
Protocol: as §1

[7] = tested on: Nrf2; assay: Nrf2 functional cell-based assay (DisoveRx), luminescence; conditions: relative to Compound 15
[8] = Solubility in water; type: physicochemical
Source text: In the development of new drugs, the solubility of drugs is one of the very important factors associated with the bio-absorption rate. […] In addition, drugs with low solubility may crystallize in tissues or cause serious toxicity, and thus, the FDA requires additional research results on oral drugs with low solubility. Furthermore, low solubility may also be the biggest cause of failure in the development of candidate materials.

T5 sequence (P08684 whole entry): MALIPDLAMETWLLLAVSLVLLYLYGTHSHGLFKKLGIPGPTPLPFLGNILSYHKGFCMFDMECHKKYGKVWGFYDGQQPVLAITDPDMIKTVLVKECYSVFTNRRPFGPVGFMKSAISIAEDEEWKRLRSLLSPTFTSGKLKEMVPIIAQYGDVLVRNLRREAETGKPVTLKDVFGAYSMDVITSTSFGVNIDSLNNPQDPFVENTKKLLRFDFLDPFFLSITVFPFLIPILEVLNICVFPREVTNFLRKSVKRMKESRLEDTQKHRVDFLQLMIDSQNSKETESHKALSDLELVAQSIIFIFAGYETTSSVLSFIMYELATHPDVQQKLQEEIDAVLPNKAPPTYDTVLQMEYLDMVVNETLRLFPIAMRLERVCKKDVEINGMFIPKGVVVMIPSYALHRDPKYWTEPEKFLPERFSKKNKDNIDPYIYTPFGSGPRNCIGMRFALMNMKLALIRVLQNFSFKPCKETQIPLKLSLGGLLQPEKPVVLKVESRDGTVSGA
T3 sequence (P33261 whole entry): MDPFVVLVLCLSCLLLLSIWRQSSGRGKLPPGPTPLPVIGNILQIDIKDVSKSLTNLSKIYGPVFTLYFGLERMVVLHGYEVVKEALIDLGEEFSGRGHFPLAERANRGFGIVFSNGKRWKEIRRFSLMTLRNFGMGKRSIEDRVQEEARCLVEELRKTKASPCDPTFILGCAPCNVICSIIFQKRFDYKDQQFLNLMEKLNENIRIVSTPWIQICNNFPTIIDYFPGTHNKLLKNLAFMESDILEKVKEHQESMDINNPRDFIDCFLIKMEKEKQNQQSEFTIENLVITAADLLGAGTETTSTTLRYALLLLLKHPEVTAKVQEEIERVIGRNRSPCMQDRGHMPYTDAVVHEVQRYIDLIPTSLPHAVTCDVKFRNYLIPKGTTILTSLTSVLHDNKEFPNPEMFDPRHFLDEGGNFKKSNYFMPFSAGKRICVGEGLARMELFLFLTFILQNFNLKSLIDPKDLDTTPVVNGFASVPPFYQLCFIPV
T1 sequence (P11712 whole entry): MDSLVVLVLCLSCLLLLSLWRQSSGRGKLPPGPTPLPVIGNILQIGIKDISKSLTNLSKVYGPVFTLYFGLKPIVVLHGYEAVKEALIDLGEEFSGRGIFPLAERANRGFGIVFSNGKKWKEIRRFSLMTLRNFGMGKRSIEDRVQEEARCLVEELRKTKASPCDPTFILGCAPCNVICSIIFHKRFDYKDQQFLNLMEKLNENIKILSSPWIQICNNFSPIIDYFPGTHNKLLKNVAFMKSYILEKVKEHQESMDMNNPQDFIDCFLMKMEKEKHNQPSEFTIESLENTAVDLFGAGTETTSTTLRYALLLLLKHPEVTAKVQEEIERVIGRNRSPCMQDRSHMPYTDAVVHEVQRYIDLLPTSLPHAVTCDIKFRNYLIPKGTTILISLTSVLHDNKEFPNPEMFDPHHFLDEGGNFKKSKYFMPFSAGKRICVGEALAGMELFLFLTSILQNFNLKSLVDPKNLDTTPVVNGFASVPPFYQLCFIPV
T4 sequence (P10635 whole entry): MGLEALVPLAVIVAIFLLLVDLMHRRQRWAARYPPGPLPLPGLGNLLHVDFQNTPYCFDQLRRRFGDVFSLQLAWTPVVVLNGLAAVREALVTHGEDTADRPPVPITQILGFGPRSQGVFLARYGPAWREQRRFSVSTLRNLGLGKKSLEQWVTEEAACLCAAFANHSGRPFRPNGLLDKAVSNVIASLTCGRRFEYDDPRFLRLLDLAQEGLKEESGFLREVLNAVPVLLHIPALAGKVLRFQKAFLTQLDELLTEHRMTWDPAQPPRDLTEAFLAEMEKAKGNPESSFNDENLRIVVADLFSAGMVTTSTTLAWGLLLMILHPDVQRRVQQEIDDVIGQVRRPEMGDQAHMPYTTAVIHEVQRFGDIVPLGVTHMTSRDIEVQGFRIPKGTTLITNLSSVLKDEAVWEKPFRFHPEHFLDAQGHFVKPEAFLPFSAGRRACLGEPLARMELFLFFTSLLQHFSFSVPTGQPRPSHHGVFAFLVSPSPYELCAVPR

SMILES: O=S(=O)(/C=C/c1ncccc1F)c1ccc(F)cc1 [Compound 3, (E)-3-fluoro-2-(2-(4-fluorophenylsulfonyl)vinyl)pyridine]
- EC50 [1]: 542 nM

SMILES: CN1CCN(C(=O)COc2ccc(S(=O)(=O)/C=C/c3ncccc3F)cc2)CC1.Cl [Compound 17, (E)-2-(4-(2-(3-fluoropyridin-2-yl)vinylsulfonyl)phenoxy)-1-(4-methylpiperazin-1-yl)ethanone hydrochloride]
- CYP 2C9 activity [2]: 122.0%

SMILES: O=S(=O)(/C=C/c1ncccc1F)c1cccc(F)c1 [Compound 2, (E)-3-fluoro-2-(2-(3-fluorophenylsulfonyl)vinyl)pyridine]
- EC50 [1]: 474 nM

SMILES: O=S(=O)(/C=C/c1ncccc1F)c1ccc(Cl)cc1 [Compound 9, (E)-2-(2-(4-chlorophenylsulfonyl)vinyl)-3-fluoropyridine]
- EC50 [1]: 286 nM

SMILES: O=S(=O)(/C=C/c1ncccc1Cl)c1cccc(Cl)c1 [Compound 11, (E)-3-chloro-2-(2-(3-chlorophenylsulfonyl)vinyl)pyridine]
- EC50 [1]: 46 nM

SMILES: O=S(=O)(/C=C/c1ncccc1F)c1ccccc1Cl [Compound 7, (E)-2-(2-(2-chlorophenylsulfonyl)vinyl)-3-fluoropyridine]
- EC50 [1]: 122 nM

SMILES: O=S(=O)(/C=C/c1ncccc1Cl)c1cccc(F)c1 [Compound 5, (E)-3-chloro-2-(2-(3-fluorophenylsulfonyl)vinyl)pyridine]
- EC50 [1]: 84 nM

SMILES: O=S(=O)(/C=C/c1ncccc1F)c1cccc(Cl)c1 [Compound 8, (E)-2-(2-(3-chlorophenylsulfonyl)vinyl)-3-fluoropyridine]
- EC50 [1]: 198 nM

SMILES: O=S(=O)(/C=C/c1ncccc1Cl)c1ccccc1Cl [Compound 10, (E)-3-chloro-2-(2-(2-chlorophenylsulfonyl)vinyl)pyridine]
- EC50 [1]: 26 nM
- Nrf2 activation effect relative to sulforaphane ([1]; ratio to sulforaphane): ≥ 15 times

SMILES: O=S(=O)(/C=C/c1ncccc1Cl)c1ccccc1F [Compound 4, (E)-3-chloro-2-(2-(2-fluorophenylsulfonyl)vinyl)pyridine]
- CYP 1A2 activity [3]: 96.0%
- CYP 2C19 activity [4]: 47.3%
- EC50 [1]: 30 nM
- CYP 2C9 activity [2]: 62.6%
- CYP 2D6 activity [5]: 86.0%
- CYP 3A4 activity [6]: 100.0%

SMILES: O=S(=O)(/C=C/c1ncccc1F)c1ccccc1F [Compound 1, (E)-3-fluoro-2-(2-(2-fluorophenylsulfonyl)vinyl)pyridine]
- CYP 1A2 activity [3]: 96.0%
- CYP 2C19 activity [4]: 65.9%
- EC50 [1]: 176 nM
- CYP 2C9 activity [2]: 100.0%
- CYP 2D6 activity [5]: 87.0%
- CYP 3A4 activity [6]: 100.0%

SMILES: COc1ccccc1S(=O)(=O)/C=C/c1cccnc1Cl [Comparative Example 2, (E)-2-chloro-3-(2-(2-methoxyphenylsulfonyl)vinyl)pyridine, reference compound]
- Effect of inducing Nrf2 activity as % of the level of Compound 15 [7]: ~10%
- solubility [8]: < 10 µg/mL

SMILES: O=S(=O)(/C=C/c1cccnc1Cl)c1ccccc1Cl [Compound 14, (E)-2-chloro-3-(2-(2-chlorophenylsulfonyl)vinyl)pyridine]
- EC50 [1]: 384 nM

SMILES: O=S(=O)(/C=C/c1cccc(Cl)n1)c1ccccc1Cl [Compound 13, (E)-2-chloro-6-(2-(2-chlorophenylsulfonyl)vinyl)pyridine]
- CYP 1A2 activity [3]: 94.0%
- CYP 2C19 activity [4]: 40.0%
- EC50 [1]: 147 nM
- CYP 2C9 activity [2]: 100.0%
- CYP 2D6 activity [5]: 100.0%
- CYP 3A4 activity [6]: 86.0%

SMILES: O=S(=O)(/C=C/c1ncccc1Cl)c1ccc(Cl)cc1 [Compound 12, (E)-3-chloro-2-(2-(4-chlorophenylsulfonyl)vinyl)pyridine]
- EC50 [1]: 65 nM

SMILES: O=S(=O)(/C=C/c1ncccc1Cl)c1ccc(F)cc1 [Compound 6, (E)-3-chloro-2-(2-(4-fluorophenylsulfonyl)vinyl)pyridine]
- EC50 [1]: 231 nM
